Measured values: patent publication US20040097728A1, “Method for producing anellated tetrahydro-{1h}-triazoles” (priority 2000, published 2004)

Key:
ABUTH = assay: greenhouse herbicidal action, post-emergence treatment; assay type: in vivo, velvet leaf; settings: post-emergence method, application rates of 7.8 and 3.9 g of a.s./ha
Description: (§1) The seeds of the test plants were sown separately for each species. For the post-emergence treatment, the test plants were first grown to a height of 3 to 15 cm, depending on the plant habit, and then treated with the active compounds which had been suspened or emulsified in water. To this end, the test plants were either sown directly and grown in the same containers, or they were first grown separately as seedlings and transplanted into the test containers a few days prior to the treatment. The application rates for the post-emergence treatments were 62.5, 31.2, 15.6, 7.8 and 3.9 g of a.s./ha. Depending on the species, the plants were kept at 10-25° C. or 20-35° C. The test period extended over 2 to 4 weeks. During this time, the plants were tended, and their response to the individual treatments was evaluated. Evaluation was carried out using a scale from 0 to 100. 100 means no emergence of the plants, or complete destruction of at least the above-ground parts, and O means no damage, or normal course of growth. The plants used in the greenhouse experiments were of the following species: [table]

AMARE = assay: as above; assay type: in vivo, common amaranth; settings: post-emergence method, application rates of 7.8 and 3.9 g of a.s./ha
Description: as §1

CHEAL = assay: as above; assay type: in vivo, lambsquarters (goosefoot); settings: post-emergence method, application rates of 7.8 and 3.9 g of a.s./ha
Description: as §1

PHBPU = assay: as above; assay type: in vivo, common morning glory; settings: post-emergence method, application rates of 7.8 and 3.9 g of a.s./ha
Description: as §1

Row | Molecule | herbicidal activity against ABUTH (ABUTH) | herbicidal activity against AMARE (AMARE) | herbicidal activity against CHEAL (CHEAL) | herbicidal activity against PHPBU (PHBPU) | melting point [°C]
1 | 2-[4-Chloro-2-fluoro-5-(2-propynyloxy)phenyl]-3-thiotetrahydro-1H-(1,2,4)triazolo[1,2-c][1,3,4]oxadiazin-1-one [Example 5] | very good | very good | very good | very good | –
2 | C#CCOc1cc(-n2c(=O)n3n(c2=S)COCC3)c(F)cc1C#N [Example 75, 2-[4-Cyano-2-fluoro-5-(propargyloxy)phenyl]-3-thioxotetrahydro-1H-[1,2,4]-triazolo-[1,2-c][1,3,4]-oxadiazin-1-one] | – | – | – | – | 226 to 227
